One experiment deals with type 2 diabetic patients. Particulars: ref [40]; cited from earlier work. The text has this: Elevated levels of m- and/or o-Tyr have been described in the vascular wall of cynomolgus monkeys as well as in cataract lenses.
Experiment [1] deals with patients (chronic insulin resistance). Particulars: chronic antioxidant therapy, e.g., in diabetic neuropathy; ref [7]; cited from earlier work. The text has this: Moreover, using the so-called “breakthrough” therapy, a 2–4 week decrease in glucotoxicity is able to normalize glycemia by decreasing insulin resistance for months or years. Because clinical insulin resistance can be reverted, it is not an alteration of the DNA, but rather some type of protein abnormality; this can be hypothesized given the background of this oxidative stress-induced clinical condition.

Experiment [2] concerns human PTP1B catalytic domain (1–299 aa). The experiment in a line: PTP1B dephosphorylation assay, capillary electrophoresis. It counts as biochemical. Particulars: 80 μM phosphopeptide, 25 nM PTP1B, 50 mM TRIS, 150 mM NaCl, 1 mM EDTA, 2 mM DTT, pH 7.4. How it is done:
The cDNA segment encoding the human PTP1B catalytic domain (1–299 aa) was PCR amplified from a HEK293T cDNA pool and inserted into the pBH4 vector with BamHI and NotI restriction sites. This construct is only missing the C-terminal flexible region and the membrane binding segment of PTP1B. The protein was expressed with an N-terminal hexa-histidine tag. Recombinant active PTP1B was expressed in the Escherichia coli BL21 (DE3) bacterial strain. Briefly, cells were grown in an ampicillin-containing LB medium at 37 °C to OD = 0.6 and then cooled down to 18 °C and induced by the addition of 0.05 mM isopropyl-beta-D-thiogalactoside (IPTG). After an overnight expression at 18 °C, the pellet was harvested and washed with phosphate buffered saline (PBS). Following freezing at −80 °C, cells were lysed in an appropriate buffer (300 mM NaCl, 50 mM phosphate, 10 mM imidazole, 2 mM beta-mercapto-ethanol, 0.1% IGEPAL with pH = 8.0, and 0.5 mM benzamidine with 0.5 mM PMSF protease inhibitors added) with the help of sonification. The lysate was centrifuged at 20,000 rpm for 30 min and the supernatant (~30 mL) was mixed with 1 mL Ni-NTA resin slurry (50%). After 45 min incubation at 4 °C, the mixture was transferred to gravity columns and washed with 10-10 mL of imidazole (40 mM imidazole, 300 mM NaCl, 50 mM phosphate, pH = 8.0 with 2 mM beta-mercapto-ethanol) and high salt (1000 mM NaCl, 20 mM imidazole, 20 mM TRIS, pH = 8.0 with 2 mM beta-mercapto-ethanol) containing wash buffers, each. PTP1B was eluted by applying 5 mL elution buffer (400 mM imidazole, 200 mM NaCl, 10% glycerol, 20 mM TRIS, pH = 8.0, with 0.1% IGEPAL). The eluted protein was supplemented with tricarboxy-ethyl-phosphine (TCEP) reducing agent at 2 mM concentration.
The Ni-NTA purified PTP1B protein was further purified by anion exchange chromatography. […]
Background electrolyte (BGE) components phosphoric acid and triethylamine were purchased from Sigma (St. Louis, MO, USA) and from Merck GmbH (Darmstadt, Germany), respectively. […] On-line absorption at 200 nm was monitored by DAD UV-Vis detector. […]

For another experiment, the system named is acute insulin resistance. Particulars: ref [6]; cited from earlier work. The text has this:
Acute insulin resistance induced by tumor necrosis factor alpha (TNFα) or dexamethasone could be ameliorated by the antioxidants N-acetylcysteine, manganese (III) tetrakis (4-benzoicacid) porphyrin (MnTBAP), or by induction of antioxidant enzymes such as superoxide dismutase or catalase.

The target of experiment [3] is T1, C-terminal SH2 domain of PI3K regulatory subunit 1 (Homo sapiens, UniProt P27986).
T1 construct: The N- and C-terminal SH2 domains (regions 321–433 and 614–724, respectively) of the PI3K regulatory subunit; hexa-histidine (inferred: expressed and purified like His-tagged PTP1B); made in house; host or cells: Escherichia coli (bacterial expression vector; strain BL21 (DE3) is stated only for PTP1B)
T1 sequence (P27986 614-724): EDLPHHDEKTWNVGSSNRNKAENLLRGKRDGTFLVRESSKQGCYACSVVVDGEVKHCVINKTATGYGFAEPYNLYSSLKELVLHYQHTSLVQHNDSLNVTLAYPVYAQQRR
The experiment in a line: Fluorescence polarization binding, PI3K-SH2(C). Particulars: competitive FP; statement for the SH2 domains. The text has this: The N- and C-terminal SH2 domains (regions 321–433 and 614–724, respectively) of the PI3K regulatory subunit were subcloned into a bacterial expression vector by PCR and then similarly expressed and purified as described above.
For in vitro fluorescence polarization (FP)-based affinity measurements, a peptide containing the phosphorylated tyrosine residue 632 of human IRS1 was labelled by lys-carboxyfluorescenine at its C-terminal end (GRKGSGD(pY)MPMSPKS(K-FITC). Synthesis of the labelled peptide was done by GenScript Inc. For competitive FP measurements, unlabeled peptides with either natural (para-phospho-Tyr) or unnatural (ortho-phospho-Tyr and meta-phospho-Tyr) phosphorylated amino acids (core sequence GRKGSGD(pY)MPMSPKV in all three cases) were used. Direct titration with the labelled peptide was done by generating a dilution series of the protein (N-terminal and C-terminal SH2 domains of PI3K regulatory subunit 1), with a constant (100 nM) peptide concentration in a standard buffer (100 mM NaCl, 20 mM TRIS pH = 8.0, 0.05% Brij-35 detergent). Competitive titrations were done by keeping the concentration of the protein-labelled peptide mixture constant (150 nM and 1500 nM C-terminal and N-terminal domain, respectively, with 100 nM labelled peptide) and varying the concentration of the unlabeled competitor peptide instead. […]
For orientation: Fluorescence polarisation rises when a labelled molecule tumbles more slowly, as on binding a larger partner.

As for `Oc1ccc(/C=C/c2cc(O)cc(O)c2)cc1` [resveratrol], in the experiment on type 2 diabetic patients, the insulin resistance entry is “improvement in insulin resistance” and the “urinary excretion of o-Tyr” value is reported as “decrease in urinary excretion of o-Tyr”.
`O=C(O)CCCCC1CCSS1` (stereo not drawn) [alpha-lipoic acid]: in experiment [1], the chronic insulin resistance result is given as “able to improve chronic insulin resistance”.
As for “GRKGSGDF(4-PO4H2)MPMSPKV [GRKV2, phospho-para-Tyr containing IRS-1 YXXM motif peptide]”, the “dephosphorylation by PTP1B” value in experiment [2] is “apart from the p-Tyr peptide, none of the modified Tyr containing peptides could be dephosphorylated by PTP1B”.
In the case of `O=C(O)c1ccc(-c2c3nc(c(-c4ccc(C(=O)O)cc4)c4ccc([n-]4)c(-c4ccc(C(=O)O)cc4)c4nc(c(-c5ccc(C(=O)O)cc5)c5ccc2[n-]5)C=C4)C=C3)cc1.[Mn+3]` [MnTBAP, manganese (III) tetrakis (4-benzoicacid) porphyrin], the “acute insulin resistance induced by TNFα or dexamethasone” value in the experiment on acute insulin resistance is “ameliorated”.
As to “GRKGSGDF(2-PO4H2)MPMSPKV [GRKV6, phospho-ortho-Tyr containing IRS-1 YXXM motif peptide]”, the “dephosphorylation by PTP1B” value in experiment [2] is reported as “incapable of dephosphorylating”. Moreover, the “binding affinity compared to phospho-para-Tyr peptide (GRKV2), PI3K-SH2(C)” value in experiment [3] is given as “greatly reduced binding affinity”.
Regarding “GRKGSGDF(3-PO4H2)MPMSPKV [GRKV4, phospho-meta-Tyr containing IRS-1 YXXM motif peptide]”, in experiment [2], the “dephosphorylation by PTP1B” value was “incapable of dephosphorylating”. The “binding affinity compared to phospho-para-Tyr peptide (GRKV2), PI3K-SH2(C)” value in experiment [3] is given as “greatly reduced binding affinity”.
For `CC(=O)N[C@@H](CS)C(=O)O` [N-acetylcysteine], the “acute insulin resistance induced by TNFα or dexamethasone” value in the experiment on acute insulin resistance is “ameliorated”.

The record behind these values is article PMC9138545, “Incorporation of Oxidized Phenylalanine Derivatives into Insulin Signaling Relevant Proteins May Link Oxidative Stress to Signaling Conditions Underlying Chronic Insulin Resistance” (Biomedicines, 2022).
